Source: PMC11191352, “Mandelonitrile lyase MDL2-mediated regulation of seed amygdalin and oil accumulation of Prunus Sibirica” (BMC Plant Biology, 2024)

System: T1, PsMDL2
T1 construct: gene MDL2
Experiment: spectrophotometric mandelonitrile cleavage at […] nm, Lineweaver-Burk
Assay type: biochemical, Prunus sibirica
Details: 0.1 M citrate-phosphate buffer pH 5.0, 25 °C; mandelonitrile 0.05-4.0 mM; purified recombinant enzyme

`N#CC(O)c1ccccc1` (stereo not shown) [mandelonitrile] gave a Km of 220 µM.
